# Measured values as given in Sander's compilation of Henry's law constants (doi:10.1021/es00156a005).
# Test: Henry solubility constant Hcp at 293 K (mol/(m3 Pa))
# Details: reference: Murphy et al. (1987)
row,SMILES,Henry solubility constant Hcp at 293 K
1,"Clc1ccc(-c2ccccc2Cl)cc1 [2,4'-dichlorobiphenyl]",0.035
2,"Clc1ccc(-c2c(Cl)c(Cl)cc(Cl)c2Cl)c(Cl)c1Cl [2,2',3,3',4,5',6'-heptachlorobiphenyl]",0.3
3,"Clc1cc(Cl)c(-c2cc(Cl)c(Cl)cc2Cl)cc1Cl [2,2',4,4',5,5'-hexachlorobiphenyl]",0.1
4,"Clc1ccc(Cl)c(-c2cccc(Cl)c2Cl)c1 [2,2',3,5'-tetrachlorobiphenyl]",0.052
5,"Clc1ccc(Cl)c(-c2cc(Cl)ccc2Cl)c1 [2,2',5,5'-tetrachlorobiphenyl]",0.041
6,"Clc1ccccc1-c1cccc(Cl)c1Cl [2,2',3-trichlorobiphenyl]",0.041
7,"Clc1ccc(-c2ccc(Cl)c(Cl)c2Cl)cc1 [2,3,4,4'-tetrachlorobiphenyl]",0.061
8,"Clc1cc(Cl)c(-c2c(Cl)cc(Cl)c(Cl)c2Cl)cc1Cl [2,2',3,4,4',5',6-heptachlorobiphenyl]",0.15
9,"Clc1cc(Cl)c(Cl)c(-c2c(Cl)ccc(Cl)c2Cl)c1 [2,2',3,3',5,6'-hexachlorobiphenyl]",0.07
10,"Clc1cccc(-c2cc(Cl)ccc2Cl)c1 [2,3',5-trichlorobiphenyl]",0.029
11,"Clc1ccc(-c2cc(Cl)c(Cl)cc2Cl)c(Cl)c1 [2,2',4,4',5-pentachlorobiphenyl]",0.046
12,"Clc1ccc(-c2cc(Cl)c(Cl)c(Cl)c2Cl)c(Cl)c1 [2,2',3,4,4',5-hexachlorobiphenyl]",0.15
13,"Clc1ccc(-c2c(Cl)ccc(Cl)c2Cl)c(Cl)c1 [2,2',3,4',6-pentachlorobiphenyl]",0.036
14,"Clc1ccc(-c2ccccc2)c(Cl)c1 [2,4-dichlorobiphenyl]",0.027
15,"Clc1ccc(Cl)c(-c2c(Cl)cc(Cl)c(Cl)c2Cl)c1 [2,2',3,4,5',6-hexachlorobiphenyl]",0.07
16,"Clc1ccc(-c2ccccc2Cl)c(Cl)c1 [2,2',4-trichlorobiphenyl]",0.03
17,"Clc1ccccc1-c1cc(Cl)c(Cl)c(Cl)c1 [2,3',4',5'-tetrachlorobiphenyl]",0.077
18,"Clc1ccccc1-c1c(Cl)cccc1Cl [2,2',6-trichlorobiphenyl]",0.033
19,"Clc1cc(Cl)c(Cl)c(-c2cc(Cl)c(Cl)cc2Cl)c1 [2,2',3,4',5,5'-hexachlorobiphenyl]",0.11
20,"Clc1ccc(Cl)c(-c2ccc(Cl)c(Cl)c2)c1 [2,3',4',5-tetrachlorobiphenyl]",0.052
21,"Clc1cccc(-c2ccc(Cl)cc2Cl)c1 [2,3',4-trichlorobiphenyl]",0.024

row,SMILES,Henry solubility constant Hcp at 293 K
1,"Clc1cc(Cl)c(-c2ccccc2Cl)cc1Cl [2,2',4,5-tetrachlorobiphenyl]",0.039
2,"Clc1ccccc1-c1ccc(Cl)c(Cl)c1Cl [2,2',3,4-tetrachlorobiphenyl]",0.049
3,"Clc1ccc(-c2ccccc2Cl)cc1Cl [2,3',4'-trichlorobiphenyl]",0.044
4,"Clc1cc(Cl)c(Cl)c(-c2ccc(Cl)c(Cl)c2)c1 [2,3,3',4',5-pentachlorobiphenyl]",0.17
5,"Clc1ccc(-c2ccc(Cl)c(Cl)c2)c(Cl)c1 [2,3',4,4'-tetrachlorobiphenyl]",0.049
6,"Clc1cc(-c2cccc(Cl)c2Cl)cc(Cl)c1Cl [2,3,3',4',5'-pentachlorobiphenyl]",0.16
7,"Clc1cccc(-c2c(Cl)cccc2Cl)c1Cl [2,2',3,6'-tetrachlorobiphenyl]",0.038
8,"Clc1cccc(-c2ccccc2Cl)c1 [2,3'-dichlorobiphenyl]",0.032
9,"Clc1cccc(-c2c(Cl)ccc(Cl)c2Cl)c1Cl [2,2',3,3',6-pentachlorobiphenyl]",0.057
10,"Clc1ccc(-c2c(Cl)cc(Cl)c(Cl)c2Cl)cc1Cl [2,3,3',4,4',6-hexachlorobiphenyl]",0.23
11,"Clc1ccc(Cl)c(-c2ccccc2Cl)c1 [2,2',5-trichlorobiphenyl]",0.033
12,"Clc1cccc(-c2c(Cl)cccc2Cl)c1 [2,3',6-trichlorobiphenyl]",0.035
13,"Clc1ccc(-c2cc(Cl)ccc2Cl)c(Cl)c1 [2,2',4,5'-tetrachlorobiphenyl]",0.036
14,"Clc1cc(Cl)c(-c2ccc(Cl)c(Cl)c2Cl)cc1Cl [2,2',3,4,4',5'-hexachlorobiphenyl]",0.13
15,"Clc1cc(Cl)c(Cl)c(-c2cccc(Cl)c2Cl)c1 [2,2',3,3',5-pentachlorobiphenyl]",0.06
16,"Clc1cc(Cl)c(-c2cccc(Cl)c2Cl)cc1Cl [2,2',3,4',5'-pentachlorobiphenyl]",0.066
17,"Clc1cccc(-c2ccc(Cl)c(Cl)c2Cl)c1Cl [2,2',3,3',4-pentachlorobiphenyl]",0.084
18,"Clc1cc(-c2c(Cl)ccc(Cl)c2Cl)c(Cl)c(Cl)c1Cl [2,2',3,3',4,5,6'-heptachlorobiphenyl]",0.2
19,"Clc1ccccc1-c1ccccc1Cl [2,2'-dichlorobiphenyl]",0.033
20,"Clc1ccc(Cl)c(-c2cc(Cl)c(Cl)c(Cl)c2Cl)c1 [2,2',3,4,5,5'-hexachlorobiphenyl]",0.1
21,"Clc1cc(Cl)c(Cl)c(-c2ccc(Cl)c(Cl)c2Cl)c1 [2,2',3,3',4,5'-hexachlorobiphenyl]",0.092

row,SMILES,Henry solubility constant Hcp at 293 K
1,"Clc1ccc(-c2c(Cl)ccc(Cl)c2Cl)cc1 [2,3,4',6-tetrachlorobiphenyl]",0.058
2,"Clc1ccc(Cl)c(-c2c(Cl)ccc(Cl)c2Cl)c1 [2,2',3,5',6-pentachlorobiphenyl]",0.05
3,"Clc1ccc(Cl)c(-c2ccccc2)c1Cl [2,3,6-trichlorobiphenyl]",0.031
4,"Clc1ccc(Cl)c(-c2cc(Cl)c(Cl)c(Cl)c2)c1 [2,3',4',5,5'-pentachlorobiphenyl]",0.19
5,"Clc1cccc(-c2c(Cl)cc(Cl)c(Cl)c2Cl)c1Cl [2,2',3,3',4,6-hexachlorobiphenyl]",0.15
6,"Clc1ccc(-c2cc(Cl)cc(Cl)c2Cl)cc1 [2,3,4',5-tetrachlorobiphenyl]",0.034
7,"Clc1ccc(-c2cc(Cl)ccc2Cl)cc1 [2,4',5-trichlorobiphenyl]",0.037
8,"Clc1ccc(Cl)c(-c2c(Cl)ccc(Cl)c2Cl)c1Cl [2,2',3,3',6,6'-hexachlorobiphenyl]",0.044
9,"Clc1ccc(-c2cc(Cl)c(Cl)cc2Cl)cc1Cl [2,3',4,4',5-pentachlorobiphenyl]",0.12
10,"Clc1ccc(-c2cccc(Cl)c2Cl)cc1Cl [2,3,3',4'-tetrachlorobiphenyl]",0.061
11,"Clc1cc(Cl)c(-c2c(Cl)ccc(Cl)c2Cl)c(Cl)c1Cl [2,2',3,3',4,6,6'-heptachlorobiphenyl]",0.11
12,"Clc1ccc(-c2c(Cl)ccc(Cl)c2Cl)cc1Cl [2,3,3',4',6-pentachlorobiphenyl]",0.093
13,"Clc1cc(Cl)c(-c2c(Cl)c(Cl)cc(Cl)c2Cl)cc1Cl [2,2',3,4',5,5',6-heptachlorobiphenyl]",0.12
14,"Clc1ccc(Cl)c(-c2cc(Cl)c(Cl)cc2Cl)c1 [2,2',4,5,5'-pentachlorobiphenyl]",0.055
15,"Clc1ccc(-c2ccc(Cl)c(Cl)c2Cl)c(Cl)c1 [2,2',3,4,4'-pentachlorobiphenyl]",0.06
16,"Clc1ccc(-c2cccc(Cl)c2Cl)c(Cl)c1 [2,2',3,4'-tetrachlorobiphenyl]",0.05
17,"Clc1ccc(-c2ccc(Cl)c(Cl)c2)cc1 [3,4,4'-trichlorobiphenyl]",0.065
18,"Clc1cccc(-c2cccc(Cl)c2Cl)c1Cl [2,2',3,3'-tetrachlorobiphenyl]",0.061
19,"Clc1cc(Cl)c(-c2c(Cl)ccc(Cl)c2Cl)cc1Cl [2,2',3,4',5',6-hexachlorobiphenyl]",0.067
